This passage reports EC50 results from patent US9062028B2, “Bicyclic nitrogen containing heteroaryl TGR5 receptor modulators” (Bristol-Myers Squibb Company, priority 2011, dated 2015).

Structures are written as SMILES.

The EC50 is the concentration giving half of the maximal effect.

In the assay the target is T1, recombinant human TGR5 (Homo sapiens, UniProt Q8TDU6).
T1 construct: expressed in transfected cells
T1 sequence (Q8TDU6 1-330): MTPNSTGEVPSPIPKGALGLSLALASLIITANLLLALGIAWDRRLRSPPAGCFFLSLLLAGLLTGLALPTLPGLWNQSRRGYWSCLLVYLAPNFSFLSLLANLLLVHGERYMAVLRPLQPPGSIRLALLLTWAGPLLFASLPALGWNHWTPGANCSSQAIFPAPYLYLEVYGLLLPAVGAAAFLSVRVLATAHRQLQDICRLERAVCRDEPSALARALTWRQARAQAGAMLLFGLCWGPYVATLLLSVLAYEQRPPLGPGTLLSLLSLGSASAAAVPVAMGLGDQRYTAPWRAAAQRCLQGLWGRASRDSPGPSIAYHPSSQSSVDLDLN
Put plainly: cAMP assay (cAMP accumulation, HTRF) in CHOK1 cells stably expressing TGR5. In kind it is cell-based. As to conditions: CHOK1 cells stably expressing human TGR5, 30 minutes at RT, 1% DMSO. A digest of the protocol: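 Agonist-induced cAMP accumulation: stable TGR5-CHOK1 cells treated 30 min at RT with compound (1% DMSO) plus 0.1 mM IBMX. HTRF ratio converted to nM cAMP via standard curve; EC50 from four-parameter logistic fit, midpoint between baseline and maximum.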
For orientation: Changes in cAMP serve as a functional read-out for many G protein-coupled receptors.
Take `Cc1cccc(OCCCC(=O)N(C)c2cccc(-c3cnn(Cc4cccc(C(=O)O)c4)c3)c2)c1C` [Example 339, 3-((4-(3-(4-(2,3-Dimethylphenoxy)-N-methylbutanamido)phenyl)-1H-pyrazol-1-yl)methyl) benzoic acid]: the EC50 amounted to 2580 nM.

Take `Cc1c(Cl)cccc1OCCOC(=O)N1C[C@@H]2C[C@@H]2c2c(-c3cnn(Cc4cccc(C(C)(C)O)c4)c3)cccc21` [Example 434, (1aR,7bS)-2-(3-Chloro-2-methylphenoxy)ethyl 7-(1-(3-(2-hydroxypropan-2-yl)benzyl)-1H-pyrazol-4-yl)-1a,2-dihydro-1H-cyclopropa [c]quinoline-3(7bH)-carboxylate]: the EC50 is 183 nM.

In the case of `Cc1cccc(OCCCC(=O)N2CCCc3c(-c4cnn(CC(=O)C(C)(C)CC(=O)O)c4)cccc32)c1C` [Example 493, 5-(4-(1-(4-(2,3-Dimethylphenoxy)butanoyl)-1,2,3,4-tetrahydroquinolin-5-yl)-1H-pyrazol-1-yl)-3,3-dimethyl-4-oxopentanoic acid], the EC50 turned out to be 4150 nM.

As for `Cc1c(Cl)cccc1OCCCC(=O)N1CCSc2c(-c3cnn(Cc4cccc(C(=O)N[C@@H](CC(N)=O)C(=O)O)c4)c3)cccc21` [Example 614, (S)-4-Amino-2-(3-((4-(4-(4-(3-chloro-2-methylphenoxy)butanoyl)-3,4-dihydro-2H-benzo[b][1,4]thiazin-8-yl)-1H-pyrazol-1-yl)methyl)benzamido)-4-oxobutanoic acid], the EC50 is 46 nM.

Turning to `Cc1cccc(OCCCC(=O)N2CCCc3c(-c4cccc(COC(=O)NCCC(=O)O)c4)cccc32)c1C` [Example 43, 3-((3-(1-(4-(2,3-Dimethylphenoxy)butanoyl)-1,2,3,4-tetrahydroquinolin-5-yl)benzyloxy)carbonylamino)propanoic acid], the EC50 stood at 611 nM.

On to `Cc1c(Cl)cccc1OCCCC(=O)N1CCCOc2c(-c3cnn(Cc4c(F)cc(C(=O)N[C@@H](CCCCN)C(=O)O)cc4Cl)c3)cccc21` [Example 792, (S)-6-Amino-2-(3-chloro-4-((4-(5-(4-(3-chloro-2-methylphenoxy)butanoyl)-2,3,4,5-tetrahydrobenzo[b][1,4]oxazepin-9-yl)-1H-pyrazol-1-yl)methyl)-5-fluorobenzamido)hexanoic acid], for which the EC50 worked out at 185 nM.

With `Cc1c(OCCCC(=O)N2CCCc3c(-c4cnn(Cc5cccc(C(=O)O)c5)c4)cccc32)cccc1C(F)(F)F` [Example 32, 3-((4-(1-(4-(2-Methyl-3-(trifluoromethyl)phenoxy)butanoyl)-1,2,3,4-tetrahydroquinolin-5-yl)-1H-pyrazol-1-yl)methyl)benzoic acid], the EC50 is 586 nM.

On to `Cc1c(Cl)cccc1OCCCC(=O)N1CCSc2c(-c3cnn(Cc4cccc(C(=O)NCS(=O)(=O)O)c4)c3)cccc21` [Example 565, (3-((4-(4-(4-(3-Chloro-2-methylphenoxy)butanoyl)-3,4-dihydro-2H-benzo[b][1,4]thiazin-8-yl)-1H-pyrazol-1-yl)methyl)benzamido) methanesulfonic acid], for which the EC50 was 48 nM.

Turning to `Cc1cccc(OCCCC(=O)N2CCCc3c(-c4cnn(Cc5cccc(NC(=O)NCC(=O)O)c5)c4)cccc32)c1C` [Example 83, 2-(3-(3-((4-(1-(4-(2,3-Dimethylphenoxy)butanoyl)-1,2,3,4-tetrahydroquinolin-5-yl)-1H-pyrazol-1-yl)methyl)phenyl)ureido)acetic acid], the half-maximal effective concentration (EC50) amounted to 107 nM.

Turning to `Cc1cccc(OCCCC(=O)N2CCCc3c(-c4cccc(C(=O)NCC(=O)O)c4)cccc32)c1C` [Example 138, 2-(3-(1-(4-(2,3-Dimethylphenoxy)butanoyl)-1,2,3,4-tetrahydroquinolin-5-yl)benzamido)acetic acid], the EC50 was found to be 3460 nM.

On to `O=C(O)c1cccc(Cn2cc(-c3cccc4c3C3CC3CN4C(=O)OCCOc3c(F)cccc3F)cn2)c1` (centres unmarked) [Example 32A, 3-((4-(3-((2-(2,6-Difluorophenoxy)ethoxy)carbonyl)-1a,2,3,7b-tetrahydro-1H-cyclopropa[c]quinolin-7-yl)-1H-pyrazol-1-yl)methyl)benzoic acid], for which the EC50 worked out at 3400 nM.
